Results published in PubChem BioAssay AID332 (DTP/NCI, 2004).
“And” between values parts separate entries of the source, which are not always exact repeats. Equal entries are not always repeated. Results filed as inconclusive are left out. Numbered stars: 1 amine (or outer) side, 2 acyl side, 3 side chain; on linkers, the order of the positions; unused ones are H or OH. Bridge positions count the residues as written; N and C are the ends. Square brackets hold non-standard residues; d marks the D form. Peptide text beside a SMILES is read from it. I, II: the chains in the order shown. Actinocin(9to1) = Cc1c2oc3c(C)ccc(C(=O)[*:1])c3nc-2c(C(=O)[*:2])c(N)c1=O; aThr = C[C@H](O)[C@H](N)C(=O)O; NMeV = CN[C@H](C(=O)O)C(C)C; Sar = CNCC(=O)O

System: mice, ADJ-PC-20 plasma cell tumor sc, T/C %
Assay: NCI In Vivo Anticancer Drug Screen. Data for tumor model ADJ-PC-20 Plasma Cell (subcutaneous) in unknown mice
Settings: endpoint: mean tumor weight, higher = larger tumour
Protocol: The antitumor activity of compounds was measured in mice bearing transplantable tumors. Survival or tumor size were measured and the results are expressed as the measurement made in the treated group (T) divided by the measurement made in the vehicle treated control group (C). The tumor model used in this assay is ADJ-PC-20 Plasma Cell (subcutaneous) in unknown mice

[1] = dose: 1.25 mg/kg/injection, schedule: Q01DX010 (ip), vehicle: saline
[2] = dose: 12.5 mg/kg/injection, schedule: Q01DX010 (ip), vehicle: carboxymethylcellulose (CMC)
[3] = dose: 125.0 mg/kg/injection, schedule: Q01DX010 (ip), vehicle: carboxymethylcellulose (CMC)
[4] = dose: 250.0 mg/kg/injection, schedule: Q01DX010 (ip), vehicle: carboxymethylcellulose (CMC)
[5] = dose: 500.0 mg/kg/injection, schedule: Q01DX010 (ip), vehicle: carboxymethylcellulose (CMC)
[6] = dose: 1000.0 mg/kg/injection, schedule: Q01DX010 (ip), vehicle: carboxymethylcellulose (CMC)
[7] = dose: 0.5 mg/kg/injection, schedule: Q01DX010 (ip), vehicle: carboxymethylcellulose (CMC)
[8] = dose: 1.0 mg/kg/injection, schedule: Q01DX010 (ip), vehicle: carboxymethylcellulose (CMC)
[9] = dose: 2.0 mg/kg/injection, schedule: Q01DX010 (ip), vehicle: carboxymethylcellulose (CMC)
[10] = dose: 4.0 mg/kg/injection, schedule: Q01DX010 (ip), vehicle: carboxymethylcellulose (CMC)
[11] = dose: 8.0 mg/kg/injection, schedule: Q01DX010 (ip), vehicle: carboxymethylcellulose (CMC)
[12] = dose: 0.25 mg/kg/injection, schedule: Q01DX010 (ip), vehicle: carboxymethylcellulose (CMC)

## N=[N+]=CC(=O)OCC(N)C(=O)O (stereo not drawn)
[1]
  T/C: 120 % of control
dose: 5.0 mg/kg/injection, schedule: Q01DX010 (ip), vehicle: saline
  T/C: 93 % of control

## CSCS(=O)C[C@H](CO)NC(=O)/C=C/c1c(C)[nH]c(=O)[nH]c1=O (stereo partly drawn)
dose: 0.25 mg/kg/injection, schedule: Q01DX010 (ip), vehicle: saline
  T/C: 71 % of control
dose: 0.5 mg/kg/injection, schedule: Q01DX010 (ip), vehicle: saline
  T/C: 82 % of control

## S=P(N1CC1)(N1CC1)N1CC1
dose: 0.63 mg/kg/injection, schedule: Q01DX010 (ip), vehicle: saline
  T/C: 57 % of control
[1]
  T/C: 2 % of control

## Cc1c2oc3c(C)ccc(C(=O)N[C@@H]4C(=O)N[C@H](C(C)C)C(=O)N5CCC[C@H]5C(=O)N(C)CC(=O)N(C)[C@@H](C(C)C)C(=O)O[C@H]4C)c3nc-2c(C(=O)N[C@@H]2C(=O)N[C@H](C(C)C)C(=O)N3CCC[C@H]3C(=O)N(C)CC(=O)N(C)[C@@H](C(C)C)C(=O)O[C@H]2C)c(N)c1=O (I: [aThr][dV]P[Sar][NMeV] / II: [aThr][dV]P[Sar][NMeV]; ester I:1-I:C, II:1-II:C; linker I:N-II:N via Actinocin(9to1))
dose: 4.7 micrograms/kg/injection, schedule: Q01DX010 (ip), vehicle: saline
  T/C: 161 % of control
dose: 6.2 micrograms/kg/injection, schedule: Q01DX010 (ip), vehicle: saline
  T/C: 193 % of control
dose: 9.4 micrograms/kg/injection, schedule: Q01DX010 (ip), vehicle: saline
  T/C: 87 % of control
dose: 12.5 micrograms/kg/injection, schedule: Q01DX010 (ip), vehicle: saline
  T/C: 93 % of control

## C[n+]1c2ccccc2nc2c(N)cc(N)cc21
dose: 6.25 mg/kg/injection, schedule: Q01DX010 (ip), vehicle: carboxymethylcellulose (CMC)
  T/C: 92 % of control
[2]
  T/C: 114 % of control
dose: 25.0 mg/kg/injection, schedule: Q01DX010 (ip), vehicle: carboxymethylcellulose (CMC)
  T/C: 99 % of control

## O=c1cn[nH]c(=O)[nH]1
[3]
  T/C: 75 % of control
[4]
  T/C: 64 % of control
[5]
  T/C: 66 % of control
[6]
  T/C: 38 % of control

## Cn1cnc([N+](=O)[O-])c1Sc1nc(N)nc2nc[nH]c12
[7]
  T/C: 71 % of control
[8]
  T/C: 33 % of control
[9]
  T/C: 30 % of control and 31 % of control
[10]
  T/C: 2 % of control

## O=C(Nc1ccc(C2=NCCCN2)cc1)c1ccc(C(=O)Nc2ccc(C3=NCCCN3)cc2)cc1
dose: 0.05 mg/kg/injection, schedule: Q01DX010 (ip), vehicle: water
  T/C: 90 % of control
dose: 0.1 mg/kg/injection, schedule: Q01DX010 (ip), vehicle: water
  T/C: 83 % of control
dose: 0.2 mg/kg/injection, schedule: Q01DX010 (ip), vehicle: water
  T/C: 109 % of control
dose: 0.4 mg/kg/injection, schedule: Q01DX010 (ip), vehicle: water
  T/C: 91 % of control and 92 % of control
dose: 3.12 mg/kg/injection, schedule: Q01DX010 (ip), vehicle: saline
  T/C: 65 % of control

## COc1cc2c(c(OC)c1OC)-c1ccc(OC)c(=O)cc1[C@@H](NC(C)=O)CC2
dose: 8.0 micrograms/kg/injection, schedule: Q01DX010 (ip), vehicle: saline
  T/C: 99 % of control
dose: 16.0 micrograms/kg/injection, schedule: Q01DX010 (ip), vehicle: saline
  T/C: 114 % of control
dose: 31.0 micrograms/kg/injection, schedule: Q01DX010 (ip), vehicle: saline
  T/C: 105 % of control

## c1ccc(CNc2ncnc3[nH]ncc23)cc1
[10]
  T/C: 110 % of control
[11]
  T/C: 108 % of control
dose: 16.0 mg/kg/injection, schedule: Q01DX010 (ip), vehicle: carboxymethylcellulose (CMC)
  T/C: 82 % of control
dose: 32.0 mg/kg/injection, schedule: Q01DX010 (ip), vehicle: carboxymethylcellulose (CMC)
  T/C: 65 % of control

## CCOC(=O)NP(=O)(N1CC1(C)C)N1CC1(C)C (stereo not drawn)
[3]
  T/C: 68 % of control
[4]
  T/C: 20 % of control

## C[C@]12CCC(=O)C=C1CC[C@@H]1[C@@H]2CC[C@@]2(C)[C@H]1CC[C@]2(C)O
dose: 31.25 mg/kg/injection, schedule: Q01DX010 (sc), vehicle: steriod suspending solution
  T/C: 113 % of control
dose: 62.5 mg/kg/injection, schedule: Q01DX010 (sc), vehicle: steriod suspending solution
  T/C: 114 % of control
dose: 125.0 mg/kg/injection, schedule: Q01DX010 (sc), vehicle: steriod suspending solution
  T/C: 99 % of control

## OCC1OC(n2cnc3c(Cl)ncnc32)C(O)C1O (stereo not drawn)
[3]
  T/C: 100 % of control
[4]
  T/C: 107 % of control
[5]
  T/C: 93 % of control
[6]
  T/C: 35 % of control

## S=P(N1CCOCC1)(N1CC1)N1CC1
dose: 3.1 mg/kg/injection, schedule: Q01DX010 (ip), vehicle: carboxymethylcellulose (CMC)
  T/C: 88 % of control and 100 % of control
dose: 6.3 mg/kg/injection, schedule: Q01DX010 (ip), vehicle: carboxymethylcellulose (CMC)
  T/C: 116 % of control
[2]
  T/C: 1 % of control

## Cc1n[nH]c(=O)[nH]c1=O
dose: 100.0 mg/kg/injection, schedule: Q01DX010 (ip), vehicle: other
  T/C: 80 % of control
dose: 200.0 mg/kg/injection, schedule: Q01DX010 (ip), vehicle: other
  T/C: 85 % of control

## O=C(Nc1ccc(C2=NCCCN2)cc1)c1ccc(NC(=O)c2ccc(C3=NCCCN3)cc2)cc1
dose: 0.12 mg/kg/injection, schedule: Q01DX010 (ip), vehicle: carboxymethylcellulose (CMC)
  T/C: 99 % of control
[12]
  T/C: 87 % of control
[7]
  T/C: 109 % of control
[8]
  T/C: 84 % of control
[9]
  T/C: 94 % of control
[10]
  T/C: 83 % of control
[11]
  T/C: 56 % of control

## S=c1nc[nH]c2nc[nH]c12
dose: 3.1 mg/kg/injection, schedule: Q01DX010 (ip), vehicle: other
  T/C: 28 % of control
dose: 6.2 mg/kg/injection, schedule: Q01DX010 (ip), vehicle: other
  T/C: 16 % of control
dose: 6.25 mg/kg/injection, schedule: Q01DX010 (ip), vehicle: other
  T/C: 19 % of control
dose: 6.25 mg/kg/injection, schedule: Q01DX011 (ip), vehicle: other
  T/C: 7 % of control
dose: 12.5 mg/kg/injection, schedule: Q01DX010 (ip), vehicle: other
  T/C: 18 % of control
dose: 12.5 mg/kg/injection, schedule: Q01DX011 (ip), vehicle: other
  T/C: 4 % of control
dose: 25.0 mg/kg/injection, schedule: Q01DX010 (ip), vehicle: other
  T/C: 9 % of control and 10 % of control
dose: 25.0 mg/kg/injection, schedule: Q01DX011 (ip), vehicle: other
  T/C: 5 % of control
dose: 50.0 mg/kg/injection, schedule: Q01DX011 (ip), vehicle: other
  T/C: 7 % of control

## COC12C(COC(N)=O)C3=C(C(=O)C(C)=C(N)C3=O)N1CC1C2N1C (stereo not drawn)
dose: 0.63 mg/kg/injection, schedule: Q01DX010 (ip), vehicle: carboxymethylcellulose (CMC)
  T/C: 81 % of control
dose: 1.25 mg/kg/injection, schedule: Q01DX010 (ip), vehicle: carboxymethylcellulose (CMC)
  T/C: 43 % of control
dose: 2.5 mg/kg/injection, schedule: Q01DX010 (ip), vehicle: carboxymethylcellulose (CMC)
  T/C: 13 % of control

## CCn1cnc2c(=S)nc[nH]c21
[8]
  T/C: 71 % of control
[9]
  T/C: 48 % of control
[10]
  T/C: 11 % of control
[11]
  T/C: 2 % of control

## O=CCC(O)C(O)C(O)CO (stereo not drawn)
dose: 62.5 mg/kg/injection, schedule: Q01DX010 (ip), vehicle: carboxymethylcellulose (CMC)
  T/C: 110 % of control
[3]
  T/C: 115 % of control
[4]
  T/C: 117 % of control
[5]
  T/C: 80 % of control
[6]
  T/C: 96 % of control
dose: 2000.0 mg/kg/injection, schedule: Q01DX010 (ip), vehicle: carboxymethylcellulose (CMC)
  T/C: 94 % of control

## O[C@H](CN1CC1)[C@@H](O)CN1CC1
[12]
  T/C: 25 % of control
dose: 16.0 micrograms/kg/injection, schedule: Q01DX010 (ip), vehicle: carboxymethylcellulose (CMC)
  T/C: 103 % of control
dose: 31.0 micrograms/kg/injection, schedule: Q01DX010 (ip), vehicle: carboxymethylcellulose (CMC)
  T/C: 151 % of control
dose: 63.0 micrograms/kg/injection, schedule: Q01DX010 (ip), vehicle: carboxymethylcellulose (CMC)
  T/C: 55 % of control
dose: 125.0 micrograms/kg/injection, schedule: Q01DX010 (ip), vehicle: carboxymethylcellulose (CMC)
  T/C: 66 % of control

## C[C@H](N)C(=O)N[C@@H]1[C@H]2C(=C(O)C[C@@H](O)[C@@H]2O)C(=O)O[C@@H]1C
dose: 250.0 mg/kg/injection, schedule: Q01DX010 (ip), vehicle: saline
  T/C: 48 % of control
dose: 500.0 mg/kg/injection, schedule: Q01DX010 (ip), vehicle: saline
  T/C: 58 % of control
